# From ChEMBL document CHEMBL1159192, “PD 165929 the first high affinity non-peptide neuromedin-B (NMB) receptor selective antagonist” (Bioorg Med Chem Lett, 1996)
# How the values were obtained:
# [1] = target: T1, Neuromedin-B receptor (Homo sapiens, UniProt P28336); experiment: Binding affinity against [125 I][4Tyr]-bombesin labeled cloned human NMB receptor stably expressed in CHO cells; format: cell-based
# Target sequence in this assay (P28336 whole entry): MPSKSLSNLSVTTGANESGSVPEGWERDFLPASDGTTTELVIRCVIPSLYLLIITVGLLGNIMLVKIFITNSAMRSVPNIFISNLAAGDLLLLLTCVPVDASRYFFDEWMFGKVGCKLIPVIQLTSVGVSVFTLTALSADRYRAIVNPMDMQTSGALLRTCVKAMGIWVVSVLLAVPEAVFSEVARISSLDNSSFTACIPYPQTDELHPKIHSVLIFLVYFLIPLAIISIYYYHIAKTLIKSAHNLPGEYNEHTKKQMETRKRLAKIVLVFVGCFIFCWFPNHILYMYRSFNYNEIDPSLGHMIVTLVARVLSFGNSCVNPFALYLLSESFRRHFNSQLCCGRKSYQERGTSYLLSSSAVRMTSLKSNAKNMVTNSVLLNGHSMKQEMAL
# [2] = target: Gastrin-releasing peptide receptor (Homo sapiens, UniProt P30550); experiment: Binding affinity against [125 I][4Tyr]-bombesin labeled cloned human GRP(gastrin releasing peptide) receptors stably expressed in CHO cells; format: cell-based
# [3] = target: T1, Neuromedin-B receptor; experiment: Inhibition of the NMB evoked increases in chloride currents in xenopus oocytes expressing human NMB receptor; format: functional, cell-based; settings: Oocyte
# Target sequence in this assay (P28336 whole entry, looked up): as the sequence (P28336 whole entry) above
# [4] = target: T1, Neuromedin-B receptor; experiment: Inhibition of the NMB induced acidification response at human NMB receptor expressed in CHO cell; format: functional, cell-based
# Target sequence in this assay (P28336 whole entry, looked up): as the sequence (P28336 whole entry) above
# [5] = target: T2, Neuromedin-B receptor (Rattus norvegicus, UniProt P24053); experiment: Binding affinity against NMB receptor in rat olfactory bulb was determined using [125I]-[Tyr4] bombesin.
# T2 sequence (P24053 whole entry): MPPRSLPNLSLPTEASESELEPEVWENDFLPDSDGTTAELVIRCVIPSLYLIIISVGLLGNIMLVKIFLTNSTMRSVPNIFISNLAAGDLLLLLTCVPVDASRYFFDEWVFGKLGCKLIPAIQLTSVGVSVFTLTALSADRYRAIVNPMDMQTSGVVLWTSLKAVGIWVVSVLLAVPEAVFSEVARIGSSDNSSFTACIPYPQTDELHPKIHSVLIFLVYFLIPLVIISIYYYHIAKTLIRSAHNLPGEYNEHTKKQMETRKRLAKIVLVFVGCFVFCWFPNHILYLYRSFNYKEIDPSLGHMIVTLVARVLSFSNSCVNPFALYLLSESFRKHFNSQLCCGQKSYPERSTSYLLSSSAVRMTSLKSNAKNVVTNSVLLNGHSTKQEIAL
# [6] = target: T1, Neuromedin-B receptor; experiment: Binding affinity against human NMB receptor was determined
# Target sequence in this assay (P28336 whole entry): as the sequence (P28336 whole entry) above
# Sequence of Gastrin-releasing peptide receptor (P30550 whole entry): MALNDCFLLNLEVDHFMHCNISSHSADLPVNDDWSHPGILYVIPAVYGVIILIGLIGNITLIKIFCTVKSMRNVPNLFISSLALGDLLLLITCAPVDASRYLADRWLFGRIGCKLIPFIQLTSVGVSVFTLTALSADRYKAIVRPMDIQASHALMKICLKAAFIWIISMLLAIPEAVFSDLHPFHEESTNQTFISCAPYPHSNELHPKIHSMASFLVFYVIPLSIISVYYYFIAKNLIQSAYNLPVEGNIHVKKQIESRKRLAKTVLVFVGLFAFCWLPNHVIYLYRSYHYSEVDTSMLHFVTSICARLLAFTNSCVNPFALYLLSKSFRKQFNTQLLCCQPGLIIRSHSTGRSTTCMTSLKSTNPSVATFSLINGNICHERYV
Ki [1] [nM],Ki [2] [nM],Kb [3] [nM],Kb [4] [nM],IC50 [5] [nM],Ki [6] [nM],Structure (SMILES)
310,> 10000,,,,,CC(C)c1cccc(C(C)C)c1NC(=O)NC(C)(Cc1c[nH]c2ccccc12)C(=O)NC1CCc2ccccc2C1 (stereo not drawn)
125,> 10000,,,,,CC(C)c1cccc(C(C)C)c1NC(=O)NC(C)(Cc1c[nH]c2ccccc12)C(=O)NCC1CCCCC1 (stereo not drawn)
120,> 10000,,,,,CC(C)c1cccc(C(C)C)c1NC(=O)NC(Cc1c[nH]c2ccccc12)C(=O)NCC1CCCCC1 (stereo not drawn)
,1500,,,,,CC(C)c1cccc(C(C)C)c1NC(=O)N(C)C(Cc1c[nH]c2ccccc12)C(=O)NCC1CCCCC1 (stereo not drawn)
6.3,> 10000,7.5,7.6,150,6.3,CC(C)c1cccc(C(C)C)c1NC(=O)N[C@@](C)(Cc1c[nH]c2ccccc12)C(=O)NCC1(c2ccccn2)CCCCC1
95,> 10000,,,,,CC(C)c1cccc(C(C)C)c1NC(=O)NC(C)(Cc1c[nH]c2ccccc12)C(=O)N[C@H]1COC(C)(C)OC1c1ccccc1 (stereo partly drawn)
440,> 10000,,,,,CC(C)c1cccc(C(C)C)c1NC(=O)NC(Cc1c[nH]c2ccccc12)C(=O)NC(C)C1CCCCC1 (stereo not drawn)
,> 10000,,,,,CC(C)c1cccc(C(C)C)c1NC(=O)NC(Cc1c[nH]c2ccccc12)C(=O)N(C)CC1CCCCC1 (stereo not drawn)
14,> 10000,,,,,CC(C)c1cccc(C(C)C)c1NC(=O)N[C@](C)(Cc1c[nH]c2ccccc12)C(=O)NC1CCCc2ccccc21 (stereo partly drawn)
450,> 10000,,,,,CC(C)c1cccc(C(C)C)c1NC(=O)NC(C)(Cc1c[nH]c2ccccc12)C(=O)NCCc1ccccc1 (stereo not drawn)
260,> 10000,,,,,CC(C)c1cccc(C(C)C)c1N(C)C(=O)NC(Cc1c[nH]c2ccccc12)C(=O)NCC1CCCCC1 (stereo not drawn)
76,> 10000,,,,,CC(C)c1cccc(C(C)C)c1NC(=O)N[C@@](C)(Cc1c[nH]c2ccccc12)C(=O)NC1CCCCC1c1ccccc1 (stereo partly drawn)
3700,> 10000,,,,,CNC(=O)C(C)(Cc1c[nH]c2ccccc12)NC(=O)Nc1c(C(C)C)cccc1C(C)C (stereo not drawn)
7.8,> 10000,,,,,CC(C)c1cccc(C(C)C)c1NC(=O)NC(C)(Cc1c[nH]c2ccccc12)C(=O)NCC1(c2ccccc2)CCCCC1 (stereo not drawn)
72,> 10000,,,,,CC(C)c1cccc(C(C)C)c1NC(=O)NC(C)(Cc1c[nH]c2ccccc12)C(=O)NC1CCCc2ccccc21 (stereo not drawn)
630,> 10000,,,,,CC(C)c1cccc(C(C)C)c1NC(=O)NC(C)(Cc1c[nH]c2ccccc12)C(=O)NC1COC(C)(C)OC1 (stereo not drawn)
420,> 10000,,,,,CC(C)c1cccc(C(C)C)c1NC(=O)NC(C)(Cc1c[nH]c2ccccc12)C(=O)N[C@@H]1COC(C)(C)OC1c1ccccc1 (stereo partly drawn)
310,> 10000,,,,,CC(C)c1cccc(C(C)C)c1NC(=O)NC(C)(Cc1c[nH]c2ccccc12)C(=O)NC1CCCCC1 (stereo not drawn)
